Calls of active or inactive are those of the source. No cut-off for these calls is given here.
Assays:
Format in all cases: cell-based
[1] = target: T1, Atypical chemokine receptor 3 (Homo sapiens, UniProt P25106); assay: Displacement of [125I]SDF-1alpha from ACKR3 (unknown origin) expressed in CHO cells at 30 uM after 1 hr by scintillation counting method
[2] = target: C-X-C chemokine receptor type 4 (Homo sapiens, UniProt P61073); assay: Displacement of [125I]SDF-1alpha from CXCR4 (unknown origin) expressed in HEK293 cells after 1 hr by scintillation counting method
[3] = target: T1, Atypical chemokine receptor 3; assay: Displacement of [125I]SDF-1alpha from ACKR3 (unknown origin) expressed in CHO cells after 1 hr by scintillation counting method
[4] = target: T1, Atypical chemokine receptor 3; assay: Activation of YFP-tagged ACKR3 (unknown origin) expressed in HEK293E cells assessed as induction of Rluc-tagged beta-arrestin-2 recruitment after 30 mins by BRET assay
[5] = target: Atypical chemokine receptor 3 (Homo sapiens, UniProt P25106, D179N); assay: Activation of YFP-tagged ACKR3 D179N mutant (unknown origin) expressed in HEK293E cells assessed as induction of Rluc-tagged beta-arrestin-2 recruitment after 30 mins by BRET assay
[6] = target: Atypical chemokine receptor 3 (Homo sapiens, UniProt P25106, D275N); assay: Activation of YFP-tagged ACKR3 D275N mutant (unknown origin) expressed in HEK293E cells assessed as induction of Rluc-tagged beta-arrestin-2 recruitment after 30 mins by BRET assay
[7] = target: Atypical chemokine receptor 3 (Homo sapiens, UniProt P25106, S198R); assay: Activation of YFP-tagged ACKR3 S198R mutant (unknown origin) expressed in HEK293E cells assessed as induction of Rluc-tagged beta-arrestin-2 recruitment after 30 mins by BRET assay
Chain of Atypical chemokine receptor 3 (Homo sapiens, UniProt P25106, S198R) (P25106 whole entry S198R): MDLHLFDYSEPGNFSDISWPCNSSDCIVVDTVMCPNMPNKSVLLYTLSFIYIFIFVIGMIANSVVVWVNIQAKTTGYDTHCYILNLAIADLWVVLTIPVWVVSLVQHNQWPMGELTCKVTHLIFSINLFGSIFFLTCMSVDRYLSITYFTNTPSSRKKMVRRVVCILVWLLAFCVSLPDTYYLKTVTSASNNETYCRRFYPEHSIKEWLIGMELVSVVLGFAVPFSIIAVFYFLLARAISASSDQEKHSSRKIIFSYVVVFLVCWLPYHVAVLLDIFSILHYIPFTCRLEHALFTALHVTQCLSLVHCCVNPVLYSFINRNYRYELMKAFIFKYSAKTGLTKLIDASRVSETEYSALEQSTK

T1 sequence (P25106 whole entry): as the sequence (P25106 whole entry S198R) above, with R198S counted along it
Chain of Atypical chemokine receptor 3 (Homo sapiens, UniProt P25106, D179N) (P25106 whole entry D179N): as the sequence (P25106 whole entry S198R) above, with D179N, R198S counted along it
Chain of Atypical chemokine receptor 3 (Homo sapiens, UniProt P25106, D275N) (P25106 whole entry D275N): as the sequence (P25106 whole entry S198R) above, with R198S, D275N counted along it
Chain of C-X-C chemokine receptor type 4 (P61073 whole entry): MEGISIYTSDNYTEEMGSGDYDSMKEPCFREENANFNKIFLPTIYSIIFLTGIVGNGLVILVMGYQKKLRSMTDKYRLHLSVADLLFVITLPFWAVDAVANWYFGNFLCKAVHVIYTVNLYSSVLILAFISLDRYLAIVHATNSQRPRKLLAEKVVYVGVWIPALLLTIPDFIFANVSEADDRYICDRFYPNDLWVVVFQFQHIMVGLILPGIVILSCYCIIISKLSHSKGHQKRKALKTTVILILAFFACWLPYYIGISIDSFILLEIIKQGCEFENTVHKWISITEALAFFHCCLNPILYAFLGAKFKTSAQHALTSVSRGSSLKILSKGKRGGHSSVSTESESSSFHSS

IC50 [2]	IC50 [3]	SMILES	other results
> 30 µM		CN1C(=O)[C@H](CCC(=O)O)NC(=O)[C@@H](Cc2ccc(O)cc2)NC(=O)[C@@H]2CCCN2C(=O)[C@H](Cc2ccc3ccccc3c2)NC(=O)[C@@H]1CCCNC(=N)N	inhibition [1]: inactive
> 30 µM		CN1C(=O)[C@H](CCCNC(=N)N)NC(=O)[C@@H](Cc2ccc(O)cc2)NC(=O)[C@@H]2CCCN2C(=O)[C@H](Cc2ccc3ccccc3c2)NC(=O)[C@@H]1CCC(=O)O	inhibition [1]: inactive
> 30 µM		CN1C(=O)[C@H](CC(N)=O)NC(=O)[C@@H](Cc2ccc(O)cc2)NC(=O)[C@@H]2CCCN2C(=O)[C@H](Cc2ccc3ccccc3c2)NC(=O)[C@@H]1CCCNC(=N)N	inhibition [1]: inactive
> 30 µM	2 to 24 µM	CN1C(=O)[C@@H]2CCCN2C(=O)[C@@H](Cc2ccc(O)cc2)NC(=O)[C@@H]2CCCN2C(=O)[C@H](Cc2ccc3ccccc3c2)NC(=O)[C@@H]1CCCNC(=N)N	
> 30 µM	2.6 µM	CN1C(=O)[C@H](CCNC(=N)N)NC(=O)[C@@H](Cc2ccc(O)cc2)NC(=O)[C@@H]2CCCN2C(=O)[C@H](Cc2ccc3ccccc3c2)NC(=O)[C@@H]1CCCNC(=N)N	
> 30 µM	0.25 µM	CN1C(=O)[C@@H](CS)NC(=O)[C@@H](Cc2ccc(O)cc2)NC(=O)[C@@H]2CCCN2C(=O)[C@H](Cc2ccc3ccccc3c2)NC(=O)[C@@H]1CCCNC(=N)N	
> 30 µM	0.72 µM	CN1C(=O)[C@H](CCCNC(=N)N)NC(=O)[C@@H](Cc2ccc(Br)cc2)NC(=O)[C@@H]2CCCN2C(=O)[C@H](Cc2ccc3ccccc3c2)NC(=O)[C@@H]1CCCNC(N)=O	
> 30 µM	4.9 µM	CC(C)[C@H]1C(=O)N[C@H](Cc2ccc(O)cc2)C(=O)N[C@@H](CCCNC(=N)N)C(=O)N(C)[C@@H](CCCNC(N)=O)C(=O)N[C@@H](Cc2ccc3ccccc3c2)C(=O)N1C	
> 30 µM	0.69 µM	CN1C(=O)[C@H](CCCNC(=N)N)NC(=O)[C@@H](Cc2ccc3ccccc3c2)NC(=O)[C@@H]2CCCN2C(=O)[C@H](Cc2ccc3ccccc3c2)NC(=O)[C@@H]1CCCNC(N)=O	
> 30 µM	1.1 µM	CN1C(=O)[C@H](CCCNC(=N)N)NC(=O)[C@@H](Cc2ccccc2)NC(=O)[C@@H]2CCCN2C(=O)[C@H](Cc2ccc3ccccc3c2)NC(=O)[C@@H]1CCCNC(N)=O	
> 30 µM	2.6 µM	CN1C(=O)[C@H](CCCN)NC(=O)[C@@H](Cc2ccc(O)cc2)NC(=O)[C@@H]2CCCN2C(=O)[C@H](Cc2ccc3ccccc3c2)NC(=O)[C@@H]1CCCNC(=N)N	
> 30 µM	0.85 µM	CN1C(=O)[C@H](CCCNC(=N)N)NC(=O)[C@@H](Cc2ccc(O)cc2)NC(=O)[C@H](Cc2c[nH]c3ccccc23)NC(=O)[C@H](Cc2ccc3ccccc3c2)NC(=O)[C@@H]1CCCNC(N)=O	
> 30 µM	1.8 µM	CSCC[C@H]1C(=O)N[C@H](Cc2ccc(O)cc2)C(=O)N[C@@H](CCCNC(=N)N)C(=O)N(C)[C@@H](CCCNC(N)=O)C(=O)N[C@@H](Cc2ccc3ccccc3c2)C(=O)N1C	
> 30 µM	13 µM	CN1C(=O)[C@H](CCCNC(=N)N)NC(=O)[C@@H](Cc2ccc(O)cc2)NC(=O)[C@@H]2CCCN2C(=O)[C@H](Cc2ccc3ccccc3c2)NC(=O)[C@@H]1CCCNC(N)=O	
> 30 µM	0.84 µM	CN1C(=O)[C@H](CCCCNC(=N)N)NC(=O)[C@@H](Cc2ccc(O)cc2)NC(=O)[C@@H]2CCCN2C(=O)[C@H](Cc2ccc3ccccc3c2)NC(=O)[C@@H]1CCCNC(=N)N	
> 30 µM	2.2 µM	CC[C@H](C)[C@H]1C(=O)N[C@H](Cc2ccc(O)cc2)C(=O)N[C@@H](CCCNC(=N)N)C(=O)N(C)[C@@H](CCCNC(N)=O)C(=O)N[C@@H](Cc2ccc3ccccc3c2)C(=O)N1C	
> 30 µM	1.5 µM	CN1C(=O)[C@H](CCCNC(=N)N)NC(=O)[C@@H](Cc2ccc(O)cc2)NC(=O)[C@@H]2CCCN2C(=O)[C@H](Cc2ccc3ccccc3c2)NC(=O)[C@@H]1CCNC(=N)N	

Continued, molecule first:

SMILES	IC50 [2]	IC50 [3]	other results
CN1C(=O)[C@H](CC(=O)O)NC(=O)[C@@H](Cc2ccc(O)cc2)NC(=O)[C@@H]2CCCN2C(=O)[C@H](Cc2ccc3ccccc3c2)NC(=O)[C@@H]1CCCNC(=N)N	> 30 µM		inhibition [1]: inactive
CN1C(=O)[C@H](CCCNC(=N)N)NC(=O)[C@@H](Cc2ccc(O)cc2)NC(=O)[C@@H]2CCCN2C(=O)[C@H](Cc2ccc3ccccc3c2)NC(=O)[C@@H]1CC(=O)O	> 30 µM		inhibition [1]: inactive
CN1C(=O)[C@H](CCCNC(=N)N)NC(=O)[C@@H](Cc2ccc(O)cc2)NC(=O)[C@@H]2CCCN2C(=O)[C@H](Cc2ccc3ccccc3c2)NC(=O)[C@@H]1CCCNC(=N)N	> 30 µM	0.86 µM	EC50 [4]: 0.091 µM; EC50 ([5]; read-out: EC50): 2.2 µM; EC50 ([5]; read-out: pEC50 (converted)): 2.51 µM; EC50 ([6]; read-out: EC50): 0.36 µM; EC50 ([7]; read-out: EC50): 0.27 µM; EC50 ([7]; read-out: pEC50 (converted)): 0.316 µM
CN1C(=O)[C@H](CCCNC(=N)N)NC(=O)[C@@H](Cc2ccc(O)cc2)NC(=O)[C@H](Cc2ccccc2)N(C)C(=O)[C@H](Cc2ccc3ccccc3c2)NC(=O)[C@@H]1CCCNC(N)=O	> 30 µM	0.6 µM	
CN1C(=O)[C@H](CCCNC(=N)N)NC(=O)[C@@H](Cc2ccc(O)cc2)NC(=O)[C@@H]2CCCN2C(=O)[C@H](Cc2ccc3ccccc3c2)NC(=O)[C@@H]1CCCN	> 30 µM	1.3 µM	
CN1C(=O)[C@H](CCCNC(=N)N)NC(=O)[C@@H](Cc2ccc(O)cc2)NC(=O)[C@@H]2CCCN2C(=O)[C@H](Cc2ccc3ccccc3c2)NC(=O)[C@@H]1CC(N)=O	> 30 µM	4.1 µM	
CN1C(=O)[C@H](CCCNC(=N)N)NC(=O)[C@@H](Cc2ccc(F)cc2)NC(=O)[C@@H]2CCCN2C(=O)[C@H](Cc2ccc3ccccc3c2)NC(=O)[C@@H]1CCCNC(N)=O	> 30 µM	1.2 µM	
CN1C(=O)[C@H](CCC(N)=O)NC(=O)[C@@H](Cc2ccc(O)cc2)NC(=O)[C@@H]2CCCN2C(=O)[C@H](Cc2ccc3ccccc3c2)NC(=O)[C@@H]1CCCNC(=N)N	> 30 µM	9.5 µM	
CN1C(=O)[C@H](CCCNC(=N)N)NC(=O)[C@@H](Cc2ccc(O)cc2)NC(=O)[C@@H]2CCCN2C(=O)[C@H](Cc2ccc3ccccc3c2)NC(=O)[C@@H]1CCC(N)=O	> 30 µM	5.8 µM	
CN1C(=O)[C@H](CCCNC(=N)N)NC(=O)[C@@H](Cc2ccc(O)cc2)NC(=O)[C@H](Cc2cccc3ccccc23)N(C)C(=O)[C@H](Cc2ccc3ccccc3c2)NC(=O)[C@@H]1CCCNC(N)=O	17 µM	0.17 µM	EC50 [4]: 0.49 µM; EC50 ([5]; read-out: EC50): 0.11 µM; EC50 ([5]; read-out: pEC50 (converted)): 0.126 µM; EC50 ([6]; read-out: EC50): 5.5 µM; EC50 ([6]; read-out: pEC50 (converted)): 6.31 µM; EC50 ([7]; read-out: EC50): 1.9 µM
CSCC[C@@H]1NC(=O)[C@@H](Cc2ccc(O)cc2)NC(=O)[C@@H]2CCCN2C(=O)[C@H](Cc2ccc3ccccc3c2)NC(=O)[C@H](CCCNC(=N)N)N(C)C1=O	> 30 µM	2 to 24 µM	
CN1C(=O)[C@H](CCCNC(=N)N)NC(=O)[C@@H](Cc2ccc(O)cc2)NC(=O)[C@@H]2C[C@@H]3CCCC[C@@H]3N2C(=O)[C@H](Cc2ccc3ccccc3c2)NC(=O)[C@@H]1CCCNC(N)=O	> 30 µM	0.35 µM	

From ChEMBL document CHEMBL4043305, “Structure-Activity Relationship Study of Cyclic Pentapeptide Ligands for Atypical Chemokine Receptor 3 (ACKR3)” (J Med Chem, 2018)
